Article PMC12195740, “Discovery of Novel Imidazothiazole-Based Hydroxamic Acid Derivatives as Potent Indoleamine 2,3-Dioxygenase 1 and Histone Deacetylase 6 Dual Inhibitors” (Molecules, 2025)

Assays:
[1] = molecular target: T1, HDAC6 human recombinant enzyme (Homo sapiens, UniProt Q9UBN7); test: HDAC6 enzyme inhibitory activity assay; assay type: biochemical
T1 sequence (Q9UBN7 1-1215): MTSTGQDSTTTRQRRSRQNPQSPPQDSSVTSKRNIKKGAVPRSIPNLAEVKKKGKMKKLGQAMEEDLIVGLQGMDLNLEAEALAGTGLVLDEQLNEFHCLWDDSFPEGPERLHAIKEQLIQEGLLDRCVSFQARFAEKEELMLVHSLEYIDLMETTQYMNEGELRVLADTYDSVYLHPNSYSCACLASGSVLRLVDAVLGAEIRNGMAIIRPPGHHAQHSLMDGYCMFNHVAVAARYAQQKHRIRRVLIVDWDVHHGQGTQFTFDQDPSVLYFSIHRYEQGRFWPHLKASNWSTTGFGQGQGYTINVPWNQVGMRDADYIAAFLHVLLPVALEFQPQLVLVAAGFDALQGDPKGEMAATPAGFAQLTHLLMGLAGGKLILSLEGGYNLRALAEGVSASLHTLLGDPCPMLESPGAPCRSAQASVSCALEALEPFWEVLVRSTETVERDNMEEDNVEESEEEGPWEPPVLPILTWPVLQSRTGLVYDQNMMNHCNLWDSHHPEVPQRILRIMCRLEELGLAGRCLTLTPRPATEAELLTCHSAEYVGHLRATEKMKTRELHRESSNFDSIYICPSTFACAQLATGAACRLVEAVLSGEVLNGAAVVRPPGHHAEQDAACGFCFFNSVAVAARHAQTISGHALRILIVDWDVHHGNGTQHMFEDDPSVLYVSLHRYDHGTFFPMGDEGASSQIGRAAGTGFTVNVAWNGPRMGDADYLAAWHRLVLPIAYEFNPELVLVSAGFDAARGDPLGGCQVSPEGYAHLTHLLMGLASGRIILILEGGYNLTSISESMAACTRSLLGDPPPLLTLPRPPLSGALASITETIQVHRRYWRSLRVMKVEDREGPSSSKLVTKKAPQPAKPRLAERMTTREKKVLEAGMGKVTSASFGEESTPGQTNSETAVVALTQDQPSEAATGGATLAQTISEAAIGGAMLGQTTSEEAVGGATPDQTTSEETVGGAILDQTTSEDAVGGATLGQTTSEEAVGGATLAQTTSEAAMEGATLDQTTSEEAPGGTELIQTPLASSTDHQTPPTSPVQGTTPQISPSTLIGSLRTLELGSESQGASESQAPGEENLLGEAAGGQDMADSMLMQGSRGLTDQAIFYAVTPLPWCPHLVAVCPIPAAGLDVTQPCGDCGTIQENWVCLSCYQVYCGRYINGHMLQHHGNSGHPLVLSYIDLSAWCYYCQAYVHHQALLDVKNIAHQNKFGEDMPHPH
Procedure: Section S1. Biological assays
Section S 1.1. HDAC6 enzyme inhibitory activity assay
Preparation of Master Mix. Trichostatin A in DMSO, Fluorogenic HDAC substrate 3, and HDAC6 human recombinant enzyme were diluted to 20 μM, 200 μM, and 7 ng/uL, respectively, using HDAC Assay Buffer.BSA was dissolved in 1 mL of distilled water to make a BSA solution at a concentration of 1 mg/mL. A certain amount of Fluorogenic HDAC substrate 3, BSA and HDAC Assay Buffer were mixed well to make a master mix, and 40 μL of the master mix was added to each well of a 96-well plate. In the drug administration group, 5 μL of Trichostatin A in DMSO and HDAC6 human recombinant enzyme were added to each well. 5 μL of HDAC Assay Buffer and HDAC6 human recombinant enzyme were added to each well of the blank group, and incubated for 30 min at 37 °C. Finally, 50 μL of undiluted HDAC substrate 3, BSA and HDAC Assay Buffer were added to each well. 50 μL of 2x HDAC Developer was added to each well and incubated at room temperature for 15 min. The samples were read in an enzyme marker with an excitation wavelength in the range of 350-380 nm and an emission light in the range of 440-460 nm.
The values of fluorescence intensities were read and the inhibition rate and IC50 were calculated. […]

HDAC4 = HDAC4 (Homo sapiens, UniProt P56524); test: HDAC isoform selectivity assay, HDAC4; assay type: biochemical; conditions: read-out: HDAC4 % inhibition rate at 10 μM
[2] = General toxicity in CT26 tumor-bearing BALB/c mice (body weight, H&E of organs); assay type: in vivo; conditions: 150 mg/kg ip every 3 days for 21 days
Procedure: After that, fixed cells were washed with PBS. Then, cells were isolated by centrifugation and stained with propidium iodide (KeyGEN BioTECH, China) for 30 min. The samples were measured using flow cytometry and analyzed by Flowjo software.
Section S 1.6 Western blot assay […]
earlier were obtained by lysing the cells in ice-cold RIPA buffer with protease and phosphatase inhibitor and stored at -20°C for future use. The protein concentrations were quantified by the Bradford method (Bio-Rad) using a Multimode Varioscan instrument (Thermo Fischer Scientific). […]
and transferred to a polyvinylidene difluoride (PVDF) membrane (Amersham Biosciences). After the membrane was blocked at room temperature for 2 h in blocking solution, primary antibody was added and incubated at 4°C overnight. Ac-α-tubulin, Ac-histone H3 and GAPDH antibodies were purchased from Imgenex, USA. After three TBST washes, the membrane was incubated with corresponding horseradish peroxidase-labeled secondary antibody (1:2,000) (Santa Cruz) at room temperature for 1 h. Membranes were washed with TBST three times for 15 min and the protein bands were detected with chemiluminescence reagent (Thermo Fischer Scientific). The X-ray films were developed using developer and fixed with fixer solution.
Section S 1.7 In vivo antitumor efficacy […]
line CT-26 in BALB/c mice as described previously. Five-week-old male BALB/c mice were purchased from the Shanghai Ling Chang biotechnology company (China), and tumors were induced through subcutaneous injection of 1 × 10^7 cells in 100 µL of sterile PBS into the dorsal region. The animals were divided into four groups, starting on the second day. When the tumors reached a volume of 50−100 mm3 in all mice, the first group was administered intraperitoneally with an equivalent volume of 5% dextrose as the vehicle control. The second group was treated with […]
treated with complex 10e at doses of 150 mg/kg body weight once every 3 days for 3 weeks, respectively. All compounds were dissolved in vehicle. Tumor volumes and body weights were […]

MDA-MB-231 cells = test: Cell viability (MTT) assay, MDA-MB-231; conditions: Homo sapiens, MDA-MB-231, 48 h, read-out: Antiproliferative IC50, MDA-MB-231
Procedure: Section S 1.3 Cell viability assays
Cell Bank at the Chinese Academy of Sciences.
DMEM and FBS were obtained from Gibco-Thermo (BRL Co. Ltd., USA).
another 48 h. The cells were stained with 10 μl of MTT at incubator for approximately 4 h. The medium was discarded and replaced by 100 mL DMSO. The O.D. value was read at 570/630 nm with a spectrophotometer.

[3] = Cell viability assay, HK2 normal renal cells; conditions: human
Excerpt: On the basis of the IDO1 and HDAC activities, we explored the proliferation inhibitory activities of the selected compounds against four solid tumor cells lines.

Sequence of HDAC4 (P56524 whole entry, species assumed, canonical isoform): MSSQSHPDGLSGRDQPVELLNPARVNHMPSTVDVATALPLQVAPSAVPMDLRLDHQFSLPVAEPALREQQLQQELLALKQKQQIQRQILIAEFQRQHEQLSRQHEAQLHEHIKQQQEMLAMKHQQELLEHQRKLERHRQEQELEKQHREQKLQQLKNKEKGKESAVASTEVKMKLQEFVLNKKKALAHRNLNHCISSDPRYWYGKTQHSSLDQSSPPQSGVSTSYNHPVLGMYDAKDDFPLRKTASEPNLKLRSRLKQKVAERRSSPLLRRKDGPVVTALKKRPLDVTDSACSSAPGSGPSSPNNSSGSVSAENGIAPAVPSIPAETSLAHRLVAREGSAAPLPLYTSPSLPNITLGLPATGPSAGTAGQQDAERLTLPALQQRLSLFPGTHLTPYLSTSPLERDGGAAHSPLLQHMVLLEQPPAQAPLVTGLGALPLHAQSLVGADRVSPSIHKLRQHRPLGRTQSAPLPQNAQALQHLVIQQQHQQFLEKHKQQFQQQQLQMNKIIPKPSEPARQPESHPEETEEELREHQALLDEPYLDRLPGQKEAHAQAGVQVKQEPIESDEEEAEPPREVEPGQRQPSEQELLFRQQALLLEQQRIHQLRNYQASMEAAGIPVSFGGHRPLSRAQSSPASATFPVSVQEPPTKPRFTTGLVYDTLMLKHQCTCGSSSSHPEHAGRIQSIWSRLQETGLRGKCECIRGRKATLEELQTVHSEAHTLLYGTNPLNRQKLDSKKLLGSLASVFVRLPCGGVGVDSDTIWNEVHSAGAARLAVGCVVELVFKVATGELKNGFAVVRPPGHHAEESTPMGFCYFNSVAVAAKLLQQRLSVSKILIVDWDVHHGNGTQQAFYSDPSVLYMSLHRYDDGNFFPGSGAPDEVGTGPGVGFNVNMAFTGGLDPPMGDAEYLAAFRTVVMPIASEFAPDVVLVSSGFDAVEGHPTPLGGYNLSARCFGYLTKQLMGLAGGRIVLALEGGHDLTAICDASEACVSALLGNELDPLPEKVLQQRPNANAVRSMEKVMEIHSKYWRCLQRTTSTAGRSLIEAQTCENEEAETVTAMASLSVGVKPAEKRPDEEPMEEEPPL

In the case of `O=C(CCCCCCNc1ccc(NC(=O)c2cnc3scc(-c4ccc(Br)cc4)n23)cc1)NO` [Compound 10e, 3-(4-Bromophenyl)-N-{4-[(7-(hydroxyamino)-7-oxoheptyl)amino]phenyl}imidazo[2,1-b]thiazole-5-carboxamide], the IC50 [1] is reported as 0.0582 µM, the “Selectivity Index (SI) = HDAC1 IC50 value/HDAC6 IC50 value” ([1]; HDAC1/HDAC6) is reported as 18.51 and the inhibition at 1 µM ([1]; read-out: HDAC6 Inhibition Rate at 1 μM) is reported as 90.5%. For the same compound, the inhibition at 10 µM (HDAC4) was 9.58%, the “histology of liver, spleen, and kidney (H&E staining)” value [2] was “no obvious histological differences” and the “influence on body weight of the mice” value ([2]; versus vehicle group) was “no obvious influence”. For the same compound, the IC50 (MDA-MB-231 cells) was 43.7 ± 1.89 µM and the IC50 [3] was over 80 µM.
